The record followed here is patent US20180282415A1, “Combination of a PD-1 Axis Binding Antagonist and an ALK Inhibitor for Treating ALK-Negative Cancer” (Merck Patent GmbH, priority 2015, published 2018).

As usually defined, the TGI is how far tumour growth fell short of that in controls. Higher therefore signals much slowing of growth.

The subject of assay [1] is CT26 colon carcinoma. In words: In vivo tumor efficacy, CT26 model, crizotinib or alectinib with anti-PD-L1 (Example 3). The arrangement: species or system Balb/c mice. To be noted: alectinib study, alectinib 60 mg/kg, anti-mPDL1 10 mg/kg. The source says:
CT26 colon carcinoma cell line has published mutanome and transcriptome data, with no known ALK fusion events or oncogenic mutations. Castle et al, BMC Genomics, 15:190 (13 Mar. 2014); Castle et al, CAN 11:3722 (11 Jan. 2012).
Six- to eight-week old female Balb/c or C57BL/6 mice were purchased from The Jackson Laboratories.
CT26 cell lines, anti-PD-L1 antibody and Rat IgG isotypes (IgG2a and IgG2b) were purchased from BioXCell (clones 2A3 and LTF2, respectively) and prepared as described in Example 2 above. […]

In assay [2] the test system is activated T cells. Nature of the assay: T cell viability, Cell-Titer Glo Luminescent Cell Viability Assay. The class given is cell-based, human. As to conditions: log[Agonist]. The protocol: Briefly, human cells were isolated from healthy donors' PBMCs by using EasySep™ Human T Cell Enrichment Kit (Stemcell Technologies) according to manufacturer's instruction. […] Cells were cultured in RPMI 1640 medium supplemented with 10% FCS and 100 I.U./mL penicillin/streptomycin in humidified incubator at 37° C. with 5% CO2. […] Culture supernatants were collected on Day 2 or 3 for cytokine analysis. Plates were then harvested on DNA specific filter papers (Perkin Elmer) using Harvester96 (Tomtec Life Sciences). The radiolabeled filters were covered with beta scintillation liquid (Perkin Elmer) and read in Microbeta® counter plates (Perkin Elmer). ^3H Thymidine was pulsed on Day 2 for T cell proliferation assay. The impact by sunitinib and axitinib on T cell proliferation and viability were repeated as previously published (FIGS. 1A and 1B).
Cell viability was measured by Cell-Titer Glo Luminescent Cell Viability Assay® (Promega, Madison). […] Table 4 below provides the Luciferase RLU values reflecting T cell viability for each of the respective inhibitors.

The subject of assay [3] is CD3/CD28-stimulated effector cells (T cells from healthy donors' PBMCs). In words: T cell proliferation assay (3H thymidine incorporation), CD3/CD28-stimulated T cells. The class given is cell-based, human. As to conditions: log[Agonist]. The source says:
Briefly, human cells were isolated from healthy donors' PBMCs by using EasySep™ Human T Cell Enrichment Kit (Stemcell Technologies) according to manufacturer's instruction. […] Culture supernatants were collected on Day 2 or 3 for cytokine analysis. Plates were then harvested on DNA specific filter papers (Perkin Elmer) using Harvester96 (Tomtec Life Sciences). The radiolabeled filters were covered with beta scintillation liquid (Perkin Elmer) and read in Microbeta® counter plates (Perkin Elmer). ^3H Thymidine was pulsed on Day 2 for T cell proliferation assay.
In general terms: Incorporation of labelled thymidine or its analogues reports DNA synthesis.

The test system of assay [4] is MC38 colon carcinoma. In words: In vivo tumor efficacy, MC38 model, crizotinib with avelumab (Example 5). The arrangement: species or system C57BL/6 mice. To be noted: for Tumor Volume (Mean ± SEM): avelumab 20 mg/kg i.p., crizotinib 40 mg/kg orally QD. The protocol: Avelumab is a fully human IgG1 antibody that recognizes both human and mouse PD-L1. […] Six- to eight-week old female C57BL/6 mice were purchased from The Jackson Laboratories (Farmington, Conn.). Mice were maintained and all animal experiments were conducted according to the protocols approved by the Institutional Animal Care and Use Committee of Rinat, South San Francisco and Worldwide Research and Development (WRD), La Jolla, Pfizer Inc. MC38 colon carcinoma cell line was kindly provided by Dr. Antoni Ribas at UCLA, California. Cells were cultured in DMEM medium supplemented with 10% fetal bovine serum, and 100 I.U./mL penicillin/streptomycin at 37° C. in an atmosphere of 5% CO2 in air, and IMPACT-tested for pathogens at Research Animal Diagnostic Laboratory (RADIL) (Columbia, Mo.). Pathogen-free cells growing in an exponential growth phase were harvested and used for tumor inoculation. […] Human IgG1 was prepared in-house (Lot No. NB123249p192CA110124). […] Body weight was recorded weekly. […] Mice were monitored for tumor growth and body weight changes.

In the case of `CCc1cc2c(cc1N1CCC(N3CCOCC3)CC1)C(C)(C)c1[nH]c3cc(C#N)ccc3c1C2=O` [Alectinib, alectinib], the “Tumor Volume (Mean ± SEM)” value in assay [1] (Day 7) stood at 119.1 ± 12.5 mm^3; in assay [1] (Day 14), 293.4 ± 54.2 mm^3; in assay [1] (Day 19), 546.8 ± 98.0 mm^3; in assay [1] (Day 24), 1114.2 ± 217.0 mm^3; in assay [1] (Day 27), 1892.5 ± 283.1 mm^3.

On to `CCN(CC)CCNC(=O)c1c(C)[nH]c(/C=C2\C(=O)Nc3ccc(F)cc32)c1C` [Sunitinib, sunitinib], for which the “Luciferase RLU (T cell viability)” value in assay [2] (μM: 0) was determined as 98.24 ± 2.169 RLU; in assay [2] (μM: 1), 13.95 ± 7.493 RLU; in assay [2] (μM: 2), 0.8502 ± 0.2596 RLU; in assay [2] (μM: 3), 1.827 RLU; in assay [2] (μM: −1) it was 91.57 ± 2.195 RLU; in assay [2] (μM: −2), 98.04 ± 2.634 RLU. For the same molecule, the “Luciferase RLU (T cell viability)” value in assay [2] (μM: −3) is recorded as 96.57 ± 1.711 RLU. Also, the “Thymidine incorporation(CPM)” value in assay [3] (μM: 0) is 493570.3 ± 59347.45 CPM; in assay [3] (μM: 1), 332 ± 105.9733 CPM; in assay [3] (μM: 2) it was 117.3333 ± 16.23 CPM; in assay [3] (μM: 3), 171 ± 25 CPM; in assay [3] (μM: −1) it was 468847.7 ± 39073.88 CPM; in assay [3] (μM: −2), 444679.3 ± 13911.18 CPM. For the same molecule, the “Thymidine incorporation(CPM)” value in assay [3] (μM: −3) is 469071 ± 48070.7 CPM.

B1: Avelumab: fully human IgG1 antibody that recognizes both human and mouse PD-L1 (antibody, V domains shown)
VH: EVQLLESGGGLVQPGGSLRLSCAASGFTFSSYIMWVRQAPGKGLEWVSSIYPSGGITFYADKGRFTISRDNSKNTLYLQMNSLRAEDTAVYYCARIKLGTVTTVDYWGQGTLVTVSS
VL: QSALTQPASVSGSPGQSITISCTGTSSDVGGYNYVSWYQQHPGKAPKLMIYDVSNRPSGVSNRFSGSKSGNTASLTISGLQAEDEADYYCSSYTSSSTRVFGTGTKVTVL
Regarding B1, the “Tumor Volume (Mean ± SEM)” value in assay [4] (Day 7) worked out at 78.3 ± 5.4 mm^3; in assay [4] (Day 14), 145.5 ± 11.0 mm^3; in assay [4] (Day 19), 307.1 ± 25.5 mm^3; in assay [4] (Day 24), 535.0 ± 62.0 mm^3; in assay [4] (Day 27), 817.7 ± 87.2 mm^3. In addition, the TGI in assay [4] (compared with the isotype control antibody treated group, avelumab 20 mg/kg, crizotinib 40 mg/kg) was 49.7%.
